For five compounds, IC50 results are on record in ChEMBL document CHEMBL1129157, “Design and synthesis of a new class of conformationally constrained inhibitors to probe the active sites of thermolysine and neutral endopeptidase 24.11” (Bioorg Med Chem Lett, 1996).

A short description of assay [1]: Compound was tested for inhibition of thermolysine, a bacterial zinc-endopeptidase. It is filed as functional.
The next assay deals with T1, Neprilysin (Rattus norvegicus, UniProt P07861).
T1 sequence (P07861 whole entry): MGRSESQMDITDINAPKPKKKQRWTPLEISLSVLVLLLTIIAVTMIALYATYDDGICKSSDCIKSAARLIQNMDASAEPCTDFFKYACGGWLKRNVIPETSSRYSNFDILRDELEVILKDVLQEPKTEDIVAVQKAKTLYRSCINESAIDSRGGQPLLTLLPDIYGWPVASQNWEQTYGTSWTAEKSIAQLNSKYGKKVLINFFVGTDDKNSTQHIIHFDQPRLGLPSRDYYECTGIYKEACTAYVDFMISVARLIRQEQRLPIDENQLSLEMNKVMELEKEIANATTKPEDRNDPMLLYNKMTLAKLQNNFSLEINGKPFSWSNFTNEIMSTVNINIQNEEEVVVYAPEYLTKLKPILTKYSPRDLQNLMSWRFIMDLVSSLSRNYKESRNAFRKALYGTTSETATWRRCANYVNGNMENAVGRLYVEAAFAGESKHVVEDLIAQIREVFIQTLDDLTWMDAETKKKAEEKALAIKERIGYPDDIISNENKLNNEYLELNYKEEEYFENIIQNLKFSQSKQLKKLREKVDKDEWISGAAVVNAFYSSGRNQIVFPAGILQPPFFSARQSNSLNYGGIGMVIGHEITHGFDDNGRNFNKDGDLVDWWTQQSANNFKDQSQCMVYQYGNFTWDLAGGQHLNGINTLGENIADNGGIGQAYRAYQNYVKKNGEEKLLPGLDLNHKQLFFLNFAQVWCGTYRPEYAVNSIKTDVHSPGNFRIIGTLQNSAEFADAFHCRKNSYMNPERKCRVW
The assay is described as follows: Compound was tested for inhibition of rat kidney neutral endopeptidase.

`O=C(O)CNC(=O)[C@@H]1[C@@H](S)CC[C@H]1c1ccccc1`: the values for the IC50 (in assay [1]; against Neprilysin) were 110 µM and 480 nM, respectively.

Compound `O=C(O)CNC(=O)[C@@H](CS)Cc1ccccc1` [(S)-THIORPHAN] gave a half-maximal inhibitory concentration (IC50) in assay [1] of 1.8 µM.

As for `O=C(O)CNC(=O)[C@H](CS)Cc1ccccc1` [(R)-THIORPHAN], the concentration for half-maximal inhibition (IC50) in assay [1] amounted to 3 µM.

`O=C(O)[C@@H]1CCCC2c3ccccc3C[C@H](CS)C(=O)N21` (some centres not stated) came in with a half-inhibitory concentration (IC50) on Neprilysin of over 300 nM.

Turning to `O=C(O)CNC(=O)[C@H]1[C@H](S)CC[C@@H]1c1ccccc1`, the half-maximal inhibitory concentration (IC50) was 29 µM in assay [1] and 430 nM against Neprilysin.
